Assay [1] has as its system Staphylococcus aureus. The assay is described as follows: Antimicrobial activity against Staphylococcus aureus UAMS-1 assessed as reduction in bacterial load in catheter at 20 ug/ml for 3 days. In kind it is functional, organism-based.
The subject of assay [2] is Staphylococcus aureus. The assay is described as follows: Antimicrobial activity against Staphylococcus aureus UAMS-1 assessed as bacterial load in catheter at 20 times MIC. In kind it is functional.
Assay [3] deals with Staphylococcus aureus. The assay is described as follows: Antimicrobial activity against Staphylococcus aureus UAMS-1653 assessed as bacterial load in catheter at 10 times MIC. In kind it is functional.
Assay [4] concerns Staphylococcus aureus. The assay is described as follows: Antimicrobial activity against Staphylococcus aureus UAMS-1 assessed as reduction in bacterial load in catheter at >/= 10 ug/ml for 3 days. The assay is classed as functional, organism-based.
In assay [5] the test system is Staphylococcus aureus. The assay is described as follows: Antimicrobial activity against Staphylococcus aureus UAMS-1 sarA mutant by Etest method.
The test system of assay [6] is Staphylococcus aureus. The assay is described as follows: Antimicrobial activity against Staphylococcus aureus UAMS-1625 reduction in bacterial load in catheter at 20 ug/ml for 3 days. The assay is classed as functional, organism-based.
Assay [7] has as its system Staphylococcus aureus. The assay is described as follows: Antimicrobial activity against Staphylococcus aureus UAMS-929 assessed as bacterial load in catheter at 20 times MIC. The assay is classed as functional.
For assay [8], the system named is Staphylococcus aureus. The assay is described as follows: Antimicrobial activity against Staphylococcus aureus UAMS-1625 sarA mutant by Etest method. The assay is classed as functional.
In assay [9] the test system is Staphylococcus aureus. The assay is described as follows: Antimicrobial activity against Staphylococcus aureus UAMS-1625 by Etest method. In kind it is functional.
The test system of assay [10] is Staphylococcus aureus. The assay is described as follows: Antimicrobial activity against Staphylococcus aureus UAMS-1625 assessed as bacterial load in catheter at 10 times MIC. The assay is classed as functional.
The subject of assay [11] is Staphylococcus aureus. The assay is described as follows: Antimicrobial activity against Staphylococcus aureus UAMS-1 by Etest method.

Each structure is given as a SMILES string. Values after ≈ are worked out from the molar mass of the structure shown. Active and inactive are the calls of the source. The rule behind the calls is not given here.

What is called MIC is the least concentration at which growth counts as inhibited. Low readings indicate a more susceptible organism, high ones a less susceptible organism.

With `CCCCCCCCCC(=O)N[C@@H](Cc1c[nH]c2ccccc12)C(=O)N[C@H](CC(N)=O)C(=O)N[C@@H](CC(=O)O)C(=O)N[C@@H]1C(=O)NCC(=O)N[C@@H](CCCN)C(=O)N[C@@H](CC(=O)O)C(=O)N[C@H](C)C(=O)N[C@@H](CC(=O)O)C(=O)NCC(=O)N[C@H](CO)C(=O)N[C@@H]([C@H](C)CC(=O)O)C(=O)N[C@@H](CC(=O)c2ccccc2N)C(=O)O[C@@H]1C`, the outcome in assay [1] was inactive. The Activity in assay [2] is given as 6.7%; in assay [3], 69%; in [7], 46.4%; in assay [10] it was 6.3%. The outcome in assay [4] and in [6] was Active. Besides, the MIC in [5] came to 0.5 µg/mL (≈ 0.309 µM); in [8], 0.38 µg/mL (≈ 0.234 µM); in [9] it was 0.38 µg/mL (≈ 0.234 µM); in assay [11], 0.5 µg/mL (≈ 0.309 µM).

These data come from ChEMBL document CHEMBL1687746, “Impact of sarA on daptomycin susceptibility of Staphylococcus aureus biofilms in vivo” (2009).
